Source: patent publication US7442383B2, “Use of xenon for the control of neurological deficits associated with cardiopulmonary bypass” (Protexeon Limited, priority 2002, dated 2008)

What was measured:
rat CPB model [1] = assay: Standardized functional neurologic (neuromotor) testing after CPB; assay type: in vivo; conditions: for neurologic outcome, difference among groups: 12th postoperative day
Text: The methodology of the CPB model used in the current study has been previously reported (Anesthesiology 2001, 95:1485-91). Briefly, anesthesia was induced in male Sprague-Dawley rats (12-14 weeks, 350-380 gm; Harlan, Indianapolis, Ind.) with 5% isoflurane in oxygen-enriched air in a plastic box. Following orotracheal intubation with a 14-gauge cannula, the lungs were mechanically ventilated (40% O2/balance N2) to maintain a PaCO2 of 36-42 mmHg. During surgical preparation, anesthesia was maintained with 2.0-2.5% isoflurane and the rectal and pericranial temperatures were monitored and servo-controlled at 37.5±0.1° C. (YSI 400 series thermistor and 73ATA Indicating controller; YSI, Yellow Springs, Ohio) with a heating blanket and convective forced-air heating system. The superficial caudal epigastric artery, a branch of a femoral artery, was cannulated with PE-10 tubing for monitoring mean arterial pressure (MAP). During cardiopulmonary bypass (CPB) rats were anesthetized with fentanyl (30 μg/kg, i.v.), midazolam (0.4 mg/kg, i.v.) and atracurium (0.5 mg/kg, i.v.) as a bolus of injection and followed by a continuous infusion of the mixture of three with a syringe pump (2.5 μg/kg/min for fentanyl, 0.03 mg/kg/min for midazolam and 0.08 mg/kg/min for atracurium). Pilot studies had been confirmed that with this anesthetic regimen, the animals had enough depth of anesthesia during CPB.
The CPB circuit (FIG. 2) consisted of a venous reservoir, a peristaltic pump and a membrane oxygenator, all of which were connected via 1.6 mm internal diameter silicone tubing (Tygon®; Cole-Parmer Instrument Co., Vernon Hills, Ill.). The CPB circuit was primed with approximately 40 ml of whole blood obtained prior to the start of the experiment from two heparinized (100IU/rat, i.v.) donor rats (275-320 gm) which were exsanguinated under isoflurane anesthesia. The drained blood traversed a warmed venous reservoir (jacketed with circulating water from a heat pump) to a peristaltic pump (Masterflex®; Cole-Parmer Instrument Co., Vernon Hills, Ill.) to a membrane oxygenator (a modified Cobe Micro® neonatal oxygenator with a surface area of 0.33 m^2; Cobe Cardiovascular, Inc., Arvada, Colo.). A closed-circuit gas delivery system fed the appropriate gas into the oxygenator after which blood was inflsed back into the rat. An in-line flow probe (2N806 flow probe and T208 volume flowmeter; Transonics Systems, Inc., Ithaca, N.Y.) was used to continuously measure CPB flow. Arterial line inflow temperature was maintained at 37.5° C. using a circulating water bath system. The venous oxygen saturation from the venous return line was measured continuously using an Oximetrix® Monitor and Opticath® Catheter (Abbot Laboratories, North Chicago, Ill.). Arterial blood gases were performed using a IL 1306 blood gas analyzer (Instrument Laboratories, Inc., Lexington, Mass.) with hemoglobin determined using an OSM3 Hemoximeter® (Radiometer Inc., Copenhagen, Denmark).
After complete of all surgical procedures as described as above, rats were randomly divided into one of four groups. […] CPB group: rats (n=10) were subjected to 60 min of non-pulsatile CPB with a membrane oxygenator receiving a mixture of 30% O2 and 65% N2. CPB+MK801 group: rats (n=10) received MK801 (0.15 mg/kg, i.v.) 15 min prior to 60 min of CPB with similar concentrations of gases as in group 2. The dose of MK801 was chosen from pilot studies, in which its side effect can be kept at minmal level. CPB+Xenon group: rats (n=10) underwent 60 min of CPB with a membrane oxygenator receiving a mixture of 30% O2 and 60% xenon. […]

rat CPB model [2] = assay: Morris water maze neurocognitive testing after CPB; assay type: in vivo; conditions: 10 postoperative days; speeds 4.7 to 6.2 inch/sec
Text: The methodology of the CPB model used in the current study has been previously reported (Anesthesiology 2001, 95:1485-91). Briefly, anesthesia was induced in male Sprague-Dawley rats (12-14 weeks, 350-380 gm; Harlan, Indianapolis, Ind.) with 5% isoflurane in oxygen-enriched air in a plastic box. Following orotracheal intubation with a 14-gauge cannula, the lungs were mechanically ventilated (40% O2/balance N2) to maintain a PaCO2 of 36-42 mmHg. During surgical preparation, anesthesia was maintained with 2.0-2.5% isoflurane and the rectal and pericranial temperatures were monitored and servo-controlled at 37.5±0.1° C. (YSI 400 series thermistor and 73ATA Indicating controller; YSI, Yellow Springs, Ohio) with a heating blanket and convective forced-air heating system. […]
The CPB circuit (FIG. 2) consisted of a venous reservoir, a peristaltic pump and a membrane oxygenator, all of which were connected via 1.6 mm internal diameter silicone tubing (Tygon®; Cole-Parmer Instrument Co., Vernon Hills, Ill.). […] The venous oxygen saturation from the venous return line was measured continuously using an Oximetrix® Monitor and Opticath® Catheter (Abbot Laboratories, North Chicago, Ill.). Arterial blood gases were performed using a IL 1306 blood gas analyzer (Instrument Laboratories, Inc., Lexington, Mass.) with hemoglobin determined using an OSM3 Hemoximeter® (Radiometer Inc., Copenhagen, Denmark). […]

rat CPB model [3] = assay: General behavioural changes after emergence from anesthesia; assay type: in vivo; conditions: MK801 0.15 mg/kg i.v.
Method: After complete of all surgical procedures as described as above, rats were randomly divided into one of four groups. […] CPB group: rats (n=10) were subjected to 60 min of non-pulsatile CPB with a membrane oxygenator receiving a mixture of 30% O2 and 65% N2. CPB+MK801 group: rats (n=10) received MK801 (0.15 mg/kg, i.v.) 15 min prior to 60 min of CPB with similar concentrations of gases as in group 2. The dose of MK801 was chosen from pilot studies, in which its side effect can be kept at minmal level. CPB+Xenon group: rats (n=10) underwent 60 min of CPB with a membrane oxygenator receiving a mixture of 30% O2 and 60% xenon.
All animals were able to drink and to eat after emergence.

[4] = test system: mouse neuronal/glial co-culture; assay: LDH release from neuronal/glial co-culture, temperature variation study; assay type: cell-based; conditions: xenon concentration (% atm)
Method: The effects of xenon as a neuroprotectant were investigated at normal body temperature (37° C.) and at a lower temperature (33° C.), for example, as may pertain during CPB. The study was based on measuring LDH release from a mouse neuronal/glial co-culture in accordance with the method described in WO 01/08692 (in the name of Imperial College of Science, Technology and Medicine).

[5] = 1st postoperative day, CPB group 5.2±1.5, sham 7.6±0.8
[6] = 3rd postoperative day, CPB group 5.8±1.8, sham 8.3±0.7

SMILES	neurologic outcome (functional neurologic score, zero to nine scale, best score=9) (rat CPB model [1]; [5])	neurologic outcome (functional neurologic score, zero to nine scale, best score=9) (rat CPB model [1]; [6])	neurologic outcome, difference among groups (rat CPB model [1])	swimming speeds, difference among groups (rat CPB model [2])	duration of behavioural disturbances (rat CPB model [3]) [h]	general behavioural changes (rat CPB model [3])	EC50 for reduction of LDH release ([4]; 33° C.)	EC50 for reduction of LDH release ([4]; 37° C.)
C[C@]12N[C@H](Cc3ccccc31)c1ccccc12 [MK801]	6.2±1.4	7.4±1.8	no difference	no significant differences	1 to 2	hyperactivity, head weaving and related disturbances of motor coordination		
[Xe] [xenon]	8.3±0.5	8.9±0.2	no difference	no significant differences			11.5+/−2.0%	35.9+/−2.2%
